Reference: patent US20090069363A1, “Therapeutic Agent for Constipation” (SHIONOGI & CO. LTD. A LEGAL ENTITY OF JAPAN, priority 2004, published 2009)

Key:
[1] = test system: morphine-induced gastrointestinal transit inhibition; experiment: Influence on morphine-induced inhibitory action against transport competence of gastrointestinal tract (carbon powder transfer rate); format: in vivo; details: mouse, 15 min before morphine 3 mg/kg s.c.
Method: After weighing each test compound, 0.5% methylcellulose (methylcellulose: Wako Pure Chemicals, water for injection: Otsuka Pharmaceutical Factory) was added, and the obtained mixture was well stirred to prepare solutions containing the test compound at final concentrations of 3 mg/mL, 1 mg/mL and 0.3 mg/mL, respectively.
After weighing each test compound, 5% xylitol (Kylit injection (registered trademark), Otsuka Pharmaceutical Factory) was added and the mixture was well stirred to prepare solutions containing the test compound at a final concentration of 1 mg/mL. The solutions having concentrations of 0.3 mg/mL and 0.1 mg/mL, respectively, were prepared by diluting the solution having the concentration of 1 mg/mL.
Preparation Method: After weighing, physiological saline was added and the mixture was well stirred to prepare a solution having a concentration of 0.3 mg/mL.
• Crj:CD-1(ICR) mouse (SPF, male, 5-week old, body weight: 25.6-32.0 g (oral administration), 26.3-33.0 g (subcutaneous administration), Charles River Laboratories Japan)
• Control Group: 8 animals; Solvent-administered Group: 8 animals; Compound 1: 3, 10 and 30 mg/kg Groups: each 8 animals; Compound 2: 3, 10 and 30. mg/kg Groups: each 8 animals; Compound 3: 3, 10 and 30 mg/kg Groups: each 8 animals
• Control Group: 8 animals, Solvent-administered Group: 8 animals; Compound 1: 3, 10 and 30 mg/kg Groups: each 8 animals; Compound 2: 3, 10 and 30 mg/kg Groups: each 8 animals; Compound 3: 3, 10 and 30 mg/kg Groups: each 8 animals
• Administration volume: 10 mL/kg • Administration Method: Oral administration was carried out using a disposable syringe and an oral feeding tube.
Subcutaneous administration was carried out using a disposable syringe and a disposable injection needle. • Administration Frequency: single
Mice fasted overnight from the evening on one day before the test were used. Each test compound was administered, and 15 minutes later, morphine (3 mg/kg) was subcutaneously administered. 30 minutes after the administration of morphine, carbon powder (a suspension containing 5% of carbon powder suspended in 10% gum Arabic) was orally administered to each mouse in an amount of 0.1 mL, and the transfer rate (the distance which the carbon powder reached/the distance between the pylorus to cecum opening×100) was measured at 30 minutes after the administration of carbon powder. To the solvent-administered group, a solvent (methylcellulose or xylitol) was administered in place of the test substance solution. To the control group, none of the test substance, morphine and the solvent was administered and the transfer rate of the carbon powder was measured.

[2] = test system: morphine-induced small intestine transit inhibition; experiment: Influence on morphine-induced small intestine transit inhibition (Evans blue test meal); format: in vivo; details: rat
Method: Using aqueous 0.5 w/v % Evans blue solution, 2.5 w/v % carboxymethylcellulose salt solution was prepared and used as the test meal.
Male Wistar rats (Crj. Wistar, Charles River Laboratories Japan, 6 to 7-week old) were used. The rats were fasted from not less than 20 hours before the beginning of the test, and water was given ad libitum.
The compound (I-1) synthesized in Example 1 was dissolved in a solvent (DMAA/Solutol/5% meglumine=15/15/70) • DMAA: N,N-dimethylacetamide (Kanto Chemical) • Solutol: Solutol (registered trademark) HS15 (BASF) • Meglumine: D(−)-N-methylglucamin (Merck)
Morphine hydrochloric acid salt (Dainippon Pharma) was dissolved in normal saline.
All of the test substance, solvent and morphine were administered in avolume of 2 mL/kg.
Each test substance in an amount of 0.03, 0.1, 0.3, 1 or 3 mg/kg (Test Substance—administered Groups) or the above-described solvent (Solvent-administered Group) was subcutaneously administered, and 75 minutes later, 3 mg/kg of morphine was subcutaneously administered to all groups. […]
The test meal in an amount of 2 mL/rat was orally administered at 30 minutes after the administration of morphine. […] The distance between the cardia and the ileocecum (full length of small intestine), and the distance up to the tip of the pigment (moving distance of the pigment) were measured. […]

[3] = test substance 1 mg/kg subcutaneous
[4] = test substance 3 mg/kg subcutaneous
[5] = test substance 10 mg/kg subcutaneous

SMILES: Cn1c2c(c3ccccc31)C[C@@]1(O)[C@H]3Cc4ccc(O)c5c4[C@@]1(CCN3CC1CC1)[C@H]2O5 [Compound 1]
- Transfer Rate of Carbon Powder (%) [1, 3]: 41 ± 2 %
- Transfer Rate of Carbon Powder (%) ([1]; test substance 3 mg/kg oral): 38 ± 2 %
- Transfer Rate of Carbon Powder (%) [1, 4]: 43 ± 3 %
- Transfer Rate of Carbon Powder (%) ([1]; test substance 10 mg/kg oral): 35 ± 2 %
- Transfer Rate of Carbon Powder (%) [1, 5]: 46 ± 3 %
- Transfer Rate of Carbon Powder (%) ([1]; test substance 30 mg/kg oral): 40 ± 2 %

SMILES: CCOC(=O)c1ccc2c3c([nH]c2c1)[C@@H]1Oc2c(O)ccc4c2[C@@]12CCN(CC1CC1)[C@H](C4)[C@]2(O)C3 [Compound 2]
- Transfer Rate of Carbon Powder (%) [1, 3]: 35 ± 3%
- Transfer Rate of Carbon Powder (%) ([1]; test substance 3 mg/kg oral): 43 ± 2 %
- Transfer Rate of Carbon Powder (%) [1, 4]: 53 ± 3 %
- Transfer Rate of Carbon Powder (%) ([1]; test substance 10 mg/kg oral): 38 ± 2 %
- Transfer Rate of Carbon Powder (%) [1, 5]: 55 ± 2 %
- Transfer Rate of Carbon Powder (%) ([1]; test substance 30 mg/kg oral): 52 ± 3 %

SMILES: Cc1ccc(/C=C2\C[C@@]3(O)[C@H]4Cc5ccc(O)c6c5[C@@]3(CCN4CC3CC3)[C@@H](O6)C2=O)cc1 [Compound 3]
- Transfer Rate of Carbon Powder (%) [1, 3]: 32 ± 2%
- Transfer Rate of Carbon Powder (%) [1, 4]: 43 ± 1 %
- Transfer Rate of Carbon Powder (%) [1, 5]: 53 ± 3 %

SMILES: O=C(O)c1ccc2c3c([nH]c2c1)[C@@H]1Oc2c(O)ccc4c2[C@@]12CCN(CC1CC1)[C@H](C4)[C@]2(O)C3 [Compound I-1, 17-cyclopropylmethyl-6,7-didehydro-4,5α-epoxy-3,14β-dihydroxy-6′-carboxy-6,7-2′,3′-indolomorphinan]
- ED50 against morphine-induced small intestine transit inhibition ([2]; test substance s.c. 75 min before morphine 3 mg/kg s.c., calculated from % MPE): 0.29 mg/kg
- antagonistic action against morphine-induced small intestine transit inhibition ([2]; test substance s.c., morphine 3 mg/kg s.c.): exhibited antagonistic action
